From PubChem BioAssay AID248 (DTP/NCI, 2004)
Values joined by “and” are separate entries in the source; they are usually repeats but may differ in a detail not shown here. Equal entries are not always repeated. Inconclusive results and toxic doses are left out. Rule as the data show it: active = T/C of 150% or more; inactive = T/C below 125%. Square brackets hold non-standard residues; d marks the D form. Peptide text beside a SMILES is read from it. * marks the point of attachment. ONb = O=[N+]([O-])c1ccc(CO*)cc1; Cbz = O=C(OCc1ccccc1)*; Nva = CCC[CH](N)C(=O)O; Bn = c1ccc(C*)cc1

System: L1210 leukemia ip in BDF1 mice, survival T/C
Test: NCI In Vivo Anticancer Drug Screen. Data for tumor model L1210 Leukemia (intraperitoneal) in B6D2F1 (BDF1) mice
Details: endpoint: mean survival time, higher = longer survival
Procedure, shortened: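 Tumor was transplanted into mice, which were then dosed with test compound or vehicle alone. Survival was recorded for each group, and the treated figure was expressed relative to the control figure.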

[1] = dose: 100.0 mg/kg/injection, schedule: Q01DX009 (ip), vehicle: saline with Tween-80
[2] = dose: 100.0 mg/kg/injection, schedule: Q04DX003 (ip), vehicle: saline with Tween-80
[3] = dose: 200.0 mg/kg/injection, schedule: Q04DX003 (ip), vehicle: saline with Tween-80
[4] = dose: 400.0 mg/kg/injection, schedule: Q04DX003 (ip), vehicle: saline with Tween-80
[5] = dose: 100.0 mg/kg/injection, schedule: Q01DX001 (ip), vehicle: saline
[6] = dose: 200.0 mg/kg/injection, schedule: Q01DX001 (ip), vehicle: saline
[7] = dose: 25.0 mg/kg/injection, schedule: Q04DX003 (ip), vehicle: saline
[8] = dose: 50.0 mg/kg/injection, schedule: Q04DX003 (ip), vehicle: saline
[9] = dose: 100.0 mg/kg/injection, schedule: Q04DX003 (ip), vehicle: saline
[10] = dose: 50.0 mg/kg/injection, schedule: Q01DX009 (ip), vehicle: Klucel (hydroxypropylcellulose) (HPC)
[11] = dose: 100.0 mg/kg/injection, schedule: Q01DX009 (ip), vehicle: Klucel (hydroxypropylcellulose) (HPC)
[12] = dose: 100.0 mg/kg/injection, schedule: Q04DX003 (ip), vehicle: Klucel (hydroxypropylcellulose) (HPC)
[13] = dose: 200.0 mg/kg/injection, schedule: Q04DX003 (ip), vehicle: Klucel (hydroxypropylcellulose) (HPC)

Measured: T/C

O=[N+]([O-])c1ccc(/C=N/c2oc(-c3ccc([N+](=O)[O-])cc3)nc2SCc2ccccc2)cc1
inactive: dose: 50.0 mg/kg/injection, schedule: Q04DX002 (ip), vehicle: Klucel (hydroxypropylcellulose) (HPC) 100 % of control | dose: 100.0 mg/kg/injection, schedule: Q04DX002 (ip), vehicle: Klucel (hydroxypropylcellulose) (HPC) 100 % of control | dose: 200.0 mg/kg/injection, schedule: Q04DX002 (ip), vehicle: Klucel (hydroxypropylcellulose) (HPC) 116 % of control

Cc1ccc(S(=O)(=O)N/N=C/c2cccs2)cc1
inactive: [1] 90 % of control | [2] 98 % of control | dose: 200.0 mg/kg/injection, schedule: Q01DX009 (ip), vehicle: saline with Tween-80 88 % of control | [3] 98 % of control | dose: 400.0 mg/kg/injection, schedule: Q01DX009 (ip), vehicle: saline with Tween-80 91 % of control | [4] 109 % of control

Fc1ccc(NC(=S)Nc2ccc(F)cc2)cc1
inactive: dose: 15.0 mg/kg/injection, schedule: Q01DX Z (ip), vehicle: carboxymethylcellulose (CMC) 98 % of control | dose: 30.0 mg/kg/injection, schedule: Q01DX Z (ip), vehicle: carboxymethylcellulose (CMC) 101 % of control | dose: 50.0 mg/kg/injection, schedule: Q01DX001 (ip), vehicle: saline 117 % of control | dose: 60.0 mg/kg/injection, schedule: Q01DX Z (ip), vehicle: carboxymethylcellulose (CMC) 101 % of control and 104 % of control | [5] 113 % of control | dose: 120.0 mg/kg/injection, schedule: Q01DX Z (ip), vehicle: carboxymethylcellulose (CMC) 101 % of control and 106 % of control | [6] 120 % of control | dose: 240.0 mg/kg/injection, schedule: Q01DX Z (ip), vehicle: carboxymethylcellulose (CMC) 100 % of control | dose: 240.0 mg/kg/injection, schedule: Q01DX Z (oral), vehicle: carboxymethylcellulose (CMC) 95 % of control | dose: 480.0 mg/kg/injection, schedule: Q01DX Z (ip), vehicle: carboxymethylcellulose (CMC) 106 % of control | dose: 480.0 mg/kg/injection, schedule: Q01DX Z (oral), vehicle: carboxymethylcellulose (CMC) 104 % of control | dose: 960.0 mg/kg/injection, schedule: Q01DX Z (oral), vehicle: carboxymethylcellulose (CMC) 107 % of control | dose: 1920.0 mg/kg/injection, schedule: Q01DX Z (oral), vehicle: carboxymethylcellulose (CMC) 100 % of control

CC(C)=CCCC(C)CCN(C)C (stereo not given)
inactive: [7] 96 % of control | [8] 97 % of control | [9] 96 % of control

CCCC(NC(=O)C(CSCc1ccccc1)NC(=O)OCc1ccccc1)C(=O)OCc1ccc([N+](=O)[O-])cc1 (stereo not given) (Cbz-Cys(Bn)-[Nva]-ONb; configuration not given here)
inactive: dose: 100.0 mg/kg/injection, schedule: Q01DX001 (ip), vehicle: other 90 % of control | dose: 200.0 mg/kg/injection, schedule: Q01DX001 (ip), vehicle: other 90 % of control | dose: 400.0 mg/kg/injection, schedule: Q01DX001 (ip), vehicle: other 89 % of control

Nc1nc(Cl)c2nnn(C3CC(O)C(CO)C3)c2n1 (stereo not given)
inactive: dose: 25.0 mg/kg/injection, schedule: Q01DX009 (ip), vehicle: Klucel (hydroxypropylcellulose) (HPC) 118 % of control | [10] 105 % of control | [11] 100 % of control

O=c1cc(O)cc(Cl)[nH]1
inactive: [5] 96 % of control | [6] 91 % of control | dose: 400.0 mg/kg/injection, schedule: Q01DX001 (ip), vehicle: saline 96 % of control

CC(=O)Nc1cccc(OC(=O)Nc2ccc([N+](=O)[O-])cc2Cl)c1
inactive: dose: 100.0 mg/kg/injection, schedule: Q01DX009 (ip), vehicle: saline 98 % of control | [9] 97 % of control | dose: 200.0 mg/kg/injection, schedule: Q01DX009 (ip), vehicle: saline 98 % of control | dose: 200.0 mg/kg/injection, schedule: Q04DX003 (ip), vehicle: saline 107 % of control | dose: 400.0 mg/kg/injection, schedule: Q01DX009 (ip), vehicle: saline 102 % of control | dose: 400.0 mg/kg/injection, schedule: Q04DX003 (ip), vehicle: saline 105 % of control

Nc1nc(-c2ccccc2N=NN2CCCCC2)nc2ccccc12
inactive: [10] 107 % of control | [11] 118 % of control | [12] 109 % of control | dose: 200.0 mg/kg/injection, schedule: Q01DX009 (ip), vehicle: Klucel (hydroxypropylcellulose) (HPC) 107 % of control | [13] 104 % of control

CN(C)c1ccc(-c2cc(C(=O)O)c3cc(I)ccc3n2)c(Cl)c1
inactive: dose: 75.0 mg/kg/injection, schedule: Q01DX001 (ip), vehicle: saline 88 % of control | dose: 150.0 mg/kg/injection, schedule: Q01DX001 (ip), vehicle: saline 86 % of control | dose: 300.0 mg/kg/injection, schedule: Q01DX001 (ip), vehicle: saline 91 % of control

CN(C)c1ccc(/C=[N+](\[O-])c2cccc(Cl)c2)cc1
inactive: dose: 100.0 mg/kg/injection, schedule: Q01DX001 (ip), vehicle: Klucel (hydroxypropylcellulose) (HPC) 95 % of control | [12] 102 % of control | dose: 200.0 mg/kg/injection, schedule: Q01DX001 (ip), vehicle: Klucel (hydroxypropylcellulose) (HPC) 97 % of control | [13] 100 % of control | dose: 400.0 mg/kg/injection, schedule: Q04DX003 (ip), vehicle: Klucel (hydroxypropylcellulose) (HPC) 107 % of control

Oc1c(O)c(Cl)c(Cl)c(Cl)c1Cl
inactive: dose: 12.5 mg/kg/injection, schedule: Q04DX003 (ip), vehicle: saline 97 % of control | [7] 95 % of control | [8] 98 % of control

CCOC(=O)/C=C(C)/C=C/C1=C(C)CCCC1(C)C
inactive: [2] 102 % of control | [3] 96 % of control | [4] 108 % of control

CN(/N=C/c1ccccn1)C(N)=S
inactive: dose: 75.0 mg/kg/injection, schedule: Q01DX001 (ip), vehicle: carboxymethylcellulose (CMC) 96 % of control | dose: 150.0 mg/kg/injection, schedule: Q01DX001 (ip), vehicle: carboxymethylcellulose (CMC) 96 % of control | dose: 300.0 mg/kg/injection, schedule: Q01DX001 (ip), vehicle: carboxymethylcellulose (CMC) 97 % of control

O=C(O)c1cc(Br)c(Br)s1
inactive: dose: 50.0 mg/kg/injection, schedule: Q01DX009 (ip), vehicle: saline with Tween-80 98 % of control | [1] 105 % of control

[N-]=[N+]=C1C(C(=O)c2ccccc2)=NN=C1c1ccccc1
inactive: dose: 50.0 mg/kg/injection, schedule: Q04DX003 (ip), vehicle: Klucel (hydroxypropylcellulose) (HPC) 97 % of control | [12] 104 % of control | [13] 108 % of control

COc1cc(/C=N\NC(=O)c2ccncc2)ccc1O
inactive: [2] 100 % of control | [3] 97 % of control | [4] 103 % of control
